ChEMBL document CHEMBL1158531, “DNA strand cleaving properties and hypoxia-selective cytotoxicity of 7-chloro-2-thienylcarbonyl-3-trifluoromethylquinoxaline 1,4-dioxide” (2010)
Activity calls are given as the source filed them. The rule behind the calls is not given here.

How the values were obtained:
Nucleic Acid [1] = test: Induction of DNA cleavage in supercoiled pGL2 DNA assessed as open circular DNA form-2 under hypoxic condition with NADPH:cytochrome P450 enzyme system at 5 to 25 uM after 16 hrs by agarose gel electrophoresis; format: nucleic-acid assay
Nucleic Acid [2] = test: Induction of DNA cleavage in supercoiled pGL2 DNA assessed as open circular DNA form-2 under hypoxic condition with NADPH:cytochrome P450 enzyme system at 25 uM after 16 hrs by agarose gel electrophoresis in presence of radical scavenging agent ethanol; format: nucleic-acid assay
Nucleic Acid [3] = test: Induction of DNA cleavage in supercoiled pGL2 DNA assessed as open circular DNA form-2 under hypoxic condition with NADPH:cytochrome P450 enzyme system at 25 uM after 16 hrs by agarose gel electrophoresis in presence of radical scavenging agent DMSO; format: nucleic-acid assay
V79 [4] = test: Cytotoxicity against chinese hamster V79 cells under aerobic condition at 2.5 uM after 7 days by crystal violet staining; format: functional, Cricetulus griseus
V79 [5] = test: Cytotoxicity against chinese hamster V79 cells under anaerobic condition at 0.21 uM after 7 days by crystal violet staining; format: functional, Cricetulus griseus
Nucleic Acid [6] = test: Induction of DNA cleavage in supercoiled pGL2 DNA assessed as open circular DNA form-2 under hypoxic condition with xanthine/xanthine oxidase enzyme system at 20 uM after 16 hrs by agarose gel electrophoresis; format: nucleic-acid assay
Nucleic Acid [7] = test: Induction of DNA cleavage in supercoiled pGL2 DNA assessed as open circular DNA form-2 under hypoxic condition with NADPH:cytochrome P450 enzyme system at 25 uM after 16 hrs by agarose gel electrophoresis in presence of radical scavenging agent t-butanol; format: nucleic-acid assay
Nucleic Acid [8] = test: Induction of DNA cleavage in supercoiled pGL2 DNA assessed as open circular DNA form-2 under hypoxic condition with NADPH:cytochrome P450 enzyme system at 25 uM after 16 hrs by agarose gel electrophoresis in presence of radical scavenging agent mannitol; format: nucleic-acid assay
Nucleic Acid [9] = test: Induction of DNA cleavage in supercoiled pGL2 DNA assessed as open circular DNA form-2 under hypoxic condition with NADPH:cytochrome P450 enzyme system at 25 uM after 16 hrs by agarose gel electrophoresis in presence of radical scavenging agent methanol; format: nucleic-acid assay
V79 [10] = test: Hypoxic cytotoxicity ratio, concentration required to kill 99% chinese hamster V79 cells under aerobic condition to hypoxic condition; format: functional, Cricetulus griseus
V79 [11] = test: Cytotoxicity against chinese hamster V79 cells under aerobic condition at 30 uM after 7 days by crystal violet staining; format: functional, Cricetulus griseus
V79 [12] = test: Cytotoxicity against chinese hamster V79 cells under anaerobic condition at 2.0 uM after 7 days by crystal violet staining; format: functional, Cricetulus griseus

Question: With `O=C(c1cccs1)c1c(C(F)(F)F)nc2ccc(Cl)cc2[n+]1[O-]` as the molecule, how does the Activity (Nucleic Acid [1]) read?
Answer: Its Activity is “inactive”.

Question: With `O=C(c1cccs1)c1c(C(F)(F)F)[n+]([O-])c2ccc(Cl)cc2[n+]1[O-]` as the molecule, how does the Activity (Nucleic Acid [2]) read?
Answer: Its Activity is “inactive”.

Question: What about the Activity (Nucleic Acid [3]) of the same molecule?
Answer: The Activity was “inactive”.

Question: What about the Activity (V79 [4]) of the same molecule?
Answer: Its Activity is 99%.

Question: And the Activity (V79 [5])?
Answer: The Activity was 99%.

Question: And the Activity (Nucleic Acid [6])?
Answer: The Activity was “Active”.

Question: What about the Activity (Nucleic Acid [1]) of the same molecule?
Answer: The Activity was “Active”.

Question: And the Activity (Nucleic Acid [7])?
Answer: Its Activity is “inactive”.

Question: And the Activity (Nucleic Acid [8])?
Answer: Its Activity is “inactive”.

Question: And the Activity (Nucleic Acid [9])?
Answer: The Activity was “inactive”.

Question: And the Ratio (V79 [10])?
Answer: Its Ratio is 16.

Question: How did the Activity (Nucleic Acid [1]) turn out when `O=C(c1cccs1)c1nc2cc(Cl)ccc2[n+]([O-])c1C(F)(F)F` was run?
Answer: Its Activity is “inactive”.

Question: With `Nc1n[n+]([O-])c2ccccc2[n+]1[O-]` [TIRAPAZAMINE] as the molecule, how does the Activity (V79 [11]) read?
Answer: The Activity was 99%.

Question: What about the Activity (V79 [12]) of the same molecule?
Answer: Its Activity is 99%.

Question: And the Ratio (V79 [10])?
Answer: The Ratio was 75.
